The text below walks through data of patent US20210322422A1, “USE OF AKT INHIBITORS IN OPHTHALMOLOGY” (Hoffmann-La Roche Inc., priority 2018, published 2021).

Each structure is given as a SMILES string. “Also recorded” adds a separate entry of the source.

Type in all cases: in vivo, mouse
Assay [1] deals with AKT2 (p-AKT2 S474). The experiment in a line: immunoblot of AKT2 phosphorylation in retinas after intravitreal injection. The following applies: 1-year-old Cryba1 cKO mice. How it is done:
SDS-PAGE and western blot analyses were performed as previously described^12. The primary antibodies were used at a dilution of 1:1000 whereas, all secondary antibodies were used at a dilution of 1:3000.
(§1) Cryba1^fl/fl and Cryba1 cKO mice (Male, 12 months old; n=4) were anaesthetized by intraperitoneal injection of 0.15 ml of ketamine (2.5 mg/ml)+ xylazine (0.5 mg/ml) mixture. Topical anesthesia (proparacaine hydrochloride) was applied to the eye and pupils dilated with a drop of topical 2.5% phenylephrine hydrochloride ophthalmic solution. The eye was proptosed by slight depression of the lower lid with blunt curved forceps and washed with sterile saline. […] All instruments were sterilized with a steam autoclave. Bacitracin Ophthalmic ointment was applied postoperatively^6. Animals were euthanized with CO2 gas four weeks after the first injection and the retinas were harvested.

Assay [2] has as its system Cryba1 cKO mice. The experiment in a line: flow cytometry estimation of percentage neutrophils in retina after intravitreal injection. The following applies: male, 12 months old, intravitreal 500 uM, once weekly for three weeks, versus vehicle or untreated. How it is done: Mouse retinas were dissected from enucleated eyes and digested with 0.05% collagenase D at 37° C. for 30 min, teased with blunt end forceps and pipetted to release cells, passed through a 70 μm cell strainer, centrifuged at 1,300 g, 4° C. for 20 minutes^10. The entire pellet was used for staining with the FITC-tagged cell surface markers CD45, V450-tagged Ly6G and Alexa fluor 700-tagged CD11b (BD Pharmigen™, USA) at a concentration of 1 μg/ml in PBS containing 1% BSA for 1 h. Cells were washed and analyzed on a flow cytometer (BD Aria III, FACS DIVA software, BD Biosciences, USA and FlowJo software-version 7.6.5), SSC-A/CD45+(FITC) cells were manually gated and among this population of cells; % Ly6G+ and % CD11b+Ly6G+ cells were quantified.
Cryba1^fl/fl and Cryba1 cKO mice (Male, 12 months old; n=4) were anaesthetized by intraperitoneal injection of 0.15 ml of ketamine (2.5 mg/ml)+ xylazine (0.5 mg/ml) mixture. Topical anesthesia (proparacaine hydrochloride) was applied to the eye and pupils dilated with a drop of topical 2.5% phenylephrine hydrochloride ophthalmic solution. The eye was proptosed by slight depression of the lower lid with blunt curved forceps and washed with sterile saline. […] All instruments were sterilized with a steam autoclave. Bacitracin Ophthalmic ointment was applied postoperatively^6. […]

For assay [3], the system named is Cryba1 cKO mice. The experiment in a line: histological sections (H&E) of retina after intravitreal injection. The following applies: 1 year old, versus vehicle. The procedure: as §1
For hematoxylin and eosin (H&E) staining, eyes from NOD-SCID mice (n=10) were enucleated and fixed initially in 2.5% glutaraldehyde for 72 h, followed by 10% buffered formalin. The eyes were embedded in methyl-methacrylate, sectioned and stained as previously described″.

Assay [4] deals with Cryba1 cKO mice. As to the kind of experiment: ELISA of CXCL1 and IFNλ in RPE-choroid after intravitreal injection. The following applies: versus age-matched vehicle and untreated. How it is done:
The RPE choroid complexes harvested from freshly enucleated mouse eyes were kept on ice and then homogenized in 300 μL of complete extraction buffer (Abcam, USA) per 5 mg of tissue. The homogenized tissue was allowed to stay in constant agitation for 2 h at 4° C., centrifuged at 13,000 rpm at 4° C. for 20 min. The supernatants were aliquoted and stored at −80° C. and were subsequently used to perform ELISA to evaluate the levels of IFNλ, and CXCL1, as previously described^13.
as §1

Take `NC1(Cc2ccc(Cl)cc2)CCN(c2ncnc3[nH]ccc23)CC1` [CCT128930]: in assay [1] (immunoblot), the “levels of total AKT in retina” value is listed as “levels of total AKT did not change”. Further, the “levels of pAKT2 (p-AKT2 S474) in retina” value in assay [1] (immunoblot densitometry, versus vehicle) is on record as “significantly decreased the levels of pAKT2; also recorded: reduced”. Also, in assay [2], the “infiltrating neutrophils (% Ly6G+ and % CD11b+Ly6G+ cells) in retina” value is reported as “decrease in infiltrating neutrophils; also recorded: significantly fewer neutrophils in the retinas”. Moreover, the “retinal structure / early RPE abnormalities (H&E)” value in assay [3] was “exhibited normal structure; also recorded: reverses these early RPE abnormalities”. Moreover, in assay [4], the “CXCL1 levels in RPE-choroid” value is recorded as “reduced levels” and the “IFNλ levels in RPE-choroid” value was “reduced levels”.
